These results are taken from patent US9937115B2, “Oral care compositions with improved flavor” (priority 2010, dated 2018).

Counter-ions that a name gives are not always drawn. Like-named read-outs stand apart in the source and are kept apart here. Residues, ends and D or L forms follow the SMILES beside them.

This assay addresses T1, TRPA1 receptor (Homo sapiens, UniProt O75762).
T1 construct: expressed in transfected cells; host or cells: HEK cell line
Put plainly: cell-based. Further details: activation: dose or concentration left out as unconfirmed. Here is the method: The term “TRPA1 activator” as used herein refers to any component which at a concentration of 1 mM gives a calcium flux count of at least 1000 counts above the background level of calcium present in the cell according to the FLIPR method as discussed herein. The term “count” is defined as the change in fluorescence of the transfected cell lines due to the influx of calcium across the cell membrane, which reacts with the calcium sensitive dye present within the cells.
In order to select TRPA1 agonists that would be preferred for reducing off-tasting chemical components found in oral care compositions, calcium flux receptor activity on the TRPA1 was utilized as the criteria for selection of actives. With allyl isothiocyanate as the TRPA1 positive control, molecules that directly activated the TRPA1 receptor were screened in dimethylsulfoxide (DMSO). Pure molecules of each material were dissolved in DMSO at a concentration of 100 micormolar and then added to an HEK cell line containing the TRPA1 receptor. If they are TRPA1 agonists, they will cause a calcium flux in the cell which fluoresces and may then be measured using a FLIPR machine.

Setting [1] is: HEK293, percentage of the control (allyl isothiocyanate) calcium count, material dissolved in DMSO at 100 micromolar, HEK cells with TRPA1, direct addition, read-out: TRPA1 Direct addition.
Setting [2] is: HEK293, percentage of the control (allyl isothiocyanate) calcium count, material dissolved in DMSO at 100 micromolar, HEK cells with TRPA1, pre-incubation, read-out: TRPA1 Pre-incubation.
Setting [3] is: HEK293, read-out: TRPA1 Direct addition.
The mark [4] stands for this setting: HEK293, read-out: TRPA1 Pre-incubation.
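Throughout, for TRPA1 Pre-incubation: values above 100 mean more active than the control.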

T1 sequence (O75762 whole entry): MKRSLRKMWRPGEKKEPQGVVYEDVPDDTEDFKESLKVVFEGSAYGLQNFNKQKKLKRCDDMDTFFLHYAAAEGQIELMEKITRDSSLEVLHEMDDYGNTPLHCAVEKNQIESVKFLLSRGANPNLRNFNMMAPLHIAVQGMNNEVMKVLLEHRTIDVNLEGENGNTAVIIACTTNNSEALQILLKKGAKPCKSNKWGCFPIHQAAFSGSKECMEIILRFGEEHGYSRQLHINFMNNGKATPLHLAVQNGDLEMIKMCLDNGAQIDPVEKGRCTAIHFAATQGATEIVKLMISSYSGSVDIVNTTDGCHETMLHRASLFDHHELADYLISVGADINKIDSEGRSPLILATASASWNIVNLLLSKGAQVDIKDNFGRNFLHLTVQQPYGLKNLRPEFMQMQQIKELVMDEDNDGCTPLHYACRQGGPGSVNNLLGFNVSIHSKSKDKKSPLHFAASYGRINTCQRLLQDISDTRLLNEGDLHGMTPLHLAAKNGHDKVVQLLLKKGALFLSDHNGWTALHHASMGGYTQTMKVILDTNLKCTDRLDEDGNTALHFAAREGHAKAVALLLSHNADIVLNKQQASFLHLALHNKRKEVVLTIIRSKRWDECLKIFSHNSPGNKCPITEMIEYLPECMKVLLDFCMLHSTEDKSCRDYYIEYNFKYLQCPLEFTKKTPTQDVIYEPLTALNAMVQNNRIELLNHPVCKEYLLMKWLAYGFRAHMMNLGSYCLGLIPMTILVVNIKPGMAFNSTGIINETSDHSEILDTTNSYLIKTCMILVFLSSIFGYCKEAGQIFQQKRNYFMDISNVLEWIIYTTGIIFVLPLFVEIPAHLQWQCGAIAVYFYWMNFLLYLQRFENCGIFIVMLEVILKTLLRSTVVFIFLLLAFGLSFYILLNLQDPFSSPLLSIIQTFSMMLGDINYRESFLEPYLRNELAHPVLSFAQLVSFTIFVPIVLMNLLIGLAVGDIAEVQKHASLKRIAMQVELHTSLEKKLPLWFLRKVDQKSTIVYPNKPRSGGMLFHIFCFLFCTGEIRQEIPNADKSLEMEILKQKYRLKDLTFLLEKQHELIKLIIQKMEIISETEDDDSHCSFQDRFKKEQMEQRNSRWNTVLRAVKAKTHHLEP

As to `CCC=C1OC(=O)c2ccccc21` [3-Propylidenephthalide], the activation at 100 µM under setting [1] came to 116%. Besides, the activation under setting [2] is 6.21%.

As for `Cc1coc2c1CCC(C)C2` (stereo not shown) [4,5,6,7-Tetrahydro-3,6-Dimethylbenzofuran], the activation at 100 µM under setting [1] came to 0.57%. The activation under setting [2] was determined as 84.8%.

Turning to `CC1=C(O)C(=O)OC1C` (stereo not shown) [4,5-Dimethyl-3-Hydroxy-2,5-Dihydrofuran-2-one], the activation at 100 µM under setting [1] came out at 0.18%. The activation under setting [2] stood at 89.1%.

Turning to `COc1ccc(CCC(C)=O)cc1` [4-(4-Methoxyphenyl)-2-Butanone], the activation at 100 µM under setting [1] is -3.93%. Further, the activation under setting [2] worked out at 71.3%.

As to `C=CCc1cc(OC)c(O)c(OC)c1` [4-Allyl-2,6-Dimethoxyphenol], the activation at 100 µM under setting [1] amounted to 39.2%. Moreover, under setting [2], the activation turned out to be 15.5%.

In the case of `CC1=C(O)C(=O)C(C)O1` (stereo not shown) [4-Hydroxy-2,5-Dimethyl-3(2H)-Furanone], the activation at 100 µM under setting [1] is 2.68%. The activation under setting [2] was 72%.

As to `COc1cc(C)cc(OC)c1O` [4-Methyl-2,6-Dimethoxyphenol], the activation at 100 µM under setting [1] is 45.9%. In addition, the activation under setting [2] turned out to be 9.25%.

`CC(=O)OCCc1scnc1C` [4-Methyl-5-Thiazoleethanol Acetate]: under setting [1], the activation at 100 µM came out at 0.62%. Moreover, under setting [2], the activation was found to be 76.4%.

On to `Cc1ncsc1CCO` [4-Methyl-5-Thiazoleethanol], for which the activation at 100 µM under setting [1] stood at 0.56%. The activation under setting [2] came out at 72.8%.

`CCC1OC(=O)C(O)=C1C` (stereo not shown) [5-Ethyl-3-Hydroxy-4-Methyl-2(5H)-Furanone]: the activation at 100 µM under setting [1] is 1.79%. Under setting [2], the activation amounted to 72.5%.

For the compound `CC=CC(=O)C(C)CC` (stereo not shown) [5-Methyl-2-Hepten-4-one], the activation at 100 µM under setting [1] turned out to be 15.5%. For the same compound, the activation under setting [2] amounted to 87.8%.

Take `CC(C)CC=C(C=O)c1ccccc1` [5-Methyl-2-Phenyl-2-Hexenal]: the activation is, setting by setting: under setting [3], 132%; under setting [4], -11.7%.

In the case of `CC1=CC(=O)[N-]S(=O)(=O)O1.[K+]` [Acesulfame K], the “TRPA1 Direct addition” value is on record as −0.12% and the “TRPA1 Pre-incubation” value is 95.57%.

Consider `CC(=O)O` [Acetic Acid], for which the activation is 0.27% under setting [3] and 68.5% under setting [4].

Turning to `CC(=O)C(C)O` (stereo not shown) [Acetoin], the activation at 100 µM under setting [1] turned out to be 0.29%. For the same compound, the activation under setting [2] is 82.6%.

On to `CC(=O)c1ccccc1` [Acetophenone], for which the activation at 100 µM under setting [1] stood at 0.64%. Besides, the activation under setting [2] was determined as 81.1%.

For `C=CCOC(=O)CCC` [Allyl Butyrate], the activation at 100 µM under setting [1] came out at 0.02%. Besides, the activation under setting [2] stood at 98%.

Regarding `C=CCOC(=O)CCC1CCCCC1` [Allyl Cyclohexanepropionate], the activation at 100 µM under setting [1] came out at 0.45%. Further, the activation under setting [2] amounted to 81.7%.

With `C=CCOC(=O)CCCCC` [Allyl Hexanoate], the activation at 100 µM under setting [1] is 0.75%. Also, the activation under setting [2] amounted to 88.1%.

On to `C=CCN=C=S` [Allyl Isothiocyanate, reference compound], for which the activation under setting [2] turned out to be 21.6%. The “% of AITC Receptor Activation (from Data in Table II)” value (restated in Table III from Table II) amounted to 100%.

`C=CCOC(=O)CCCCCCCC` [Allyl Nonanoate]: under setting [1], the activation at 100 µM is -1.87%. In addition, the activation under setting [2] worked out at 69.6%.

Consider `C=CCOC(=O)c1ccccc1N` [Allyl anthranilate], for which the activation at 100 µM under setting [1] was 0.29%. For the same compound, the activation under setting [2] stood at 99.5%.

As to `CC(=O)OC(C)(C)Cc1ccccc1` [Alpha, Alpha Dimethylphenethyl Acetate], the activation at 100 µM under setting [1] is -3.2%. Moreover, under setting [2], the activation was found to be 72%.

For the compound `CCCCCC(=Cc1ccccc1)C(OC)OC` [Alpha-Amylcinnamaldehyde Dimethyl acetal], the activation at 100 µM under setting [1] was -2.4%. The activation under setting [2] was -0.12%.

Consider `CC(=O)OC(C)c1ccccc1` (stereo not drawn) [Alpha-Methylbenzyl Acetate], for which the activation at 100 µM under setting [1] stood at 1.45%. For the same compound, the activation under setting [2] turned out to be 70.8%.

For `CC1=CCC2CC1C2(C)C` (stereo not drawn) [Alpha-Pinene], the activation at 100 µM under setting [1] was -3.07%. The activation under setting [2] turned out to be 86.6%.

Turning to `CC1=CCC(C(C)(C)O)CC1` (stereo not drawn) [Alpha-Terpineol], the activation at 100 µM under setting [1] stood at 15.8%. Moreover, the activation under setting [2] turned out to be 60.5%.

`CCCCCOC(=O)c1ccco1` [Amyl 2-Furoate]: the activation at 100 µM under setting [1] is -2.39%. The activation under setting [2] stood at 74.1%.

Turning to `CCCCCO` [Amyl Alcohol], the activation at 100 µM under setting [1] is -1.94%. Moreover, the activation under setting [2] worked out at 85.9%.

Take `CCCCCOC(=O)CCC` [Amyl Butyrate]: the activation at 100 µM under setting [1] was -2.64%. Under setting [2], the activation is 75.9%.

As to `COC(=O)[C@H](Cc1ccccc1)NC(=O)[C@@H](N)CC(=O)O` [Aspartame] (H-Asp-Phe-OMe), under setting [1], the activation at 100 µM is -2.15%. Also, the activation under setting [2] stood at 80%.

For `COC(OC)c1ccccc1` [Benzaldehyde Dimethyl Acetal], the activation was -0.68% under setting [3] and 120% under setting [4].

For `O=Cc1ccccc1` [Benzaldehyde], the activation at 100 µM under setting [1] is -1.46%. Also, the activation under setting [2] turned out to be 90.1%.

On to `O=C(c1ccccc1)C(O)c1ccccc1` (stereo not shown) [Benzoin], for which the activation at 100 µM under setting [1] is -0.5%. The activation under setting [2] worked out at 56.2%.

Turning to `c1ccc2scnc2c1` [Benzothiazole], the activation at 100 µM under setting [1] is -2.29%. Further, the activation under setting [2] was found to be 81.5%.

`CC(=O)OCc1ccccc1` [Benzyl Acetate]: the activation at 100 µM under setting [1] was -0.31%. For the same compound, the activation under setting [2] was found to be 74.5%.

For the compound `OCc1ccccc1` [Benzyl Alcohol], the activation at 100 µM under setting [1] worked out at 21.4%. Under setting [2], the activation is 14.6%.

On to `O=C(OCc1ccccc1)c1ccccc1` [Benzyl Benzoate], for which the activation at 100 µM under setting [1] amounted to 53.9%. Moreover, under setting [2], the activation came to 18.9%.

For the compound `CCCC(=O)OCc1ccccc1` [Benzyl Butyrate], the activation at 100 µM under setting [1] is -3.01%. The activation under setting [2] was determined as 58.7%.

`O=C(C=Cc1ccccc1)OCc1ccccc1` [Benzyl Cinnamate]: the activation is -2.39% under setting [1] and 81.1% under setting [2].

Turning to `CCOCc1ccccc1` [Benzyl Ethyl Ether], under setting [1], the activation at 100 µM is -2.24%. For the same compound, under setting [2], the activation worked out at 66.2%.

On to `O=COCc1ccccc1` [Benzyl Formate], for which the activation reads like this: under setting [1], -3.01%; under setting [2], 75.3%.

On to `CC(C)C(=O)OCc1ccccc1` [Benzyl Isobutyrate], for which, under setting [1], the activation at 100 µM was -2.7%. The activation under setting [2] is 65%.

As for `CCC(=O)OCc1ccccc1` [Benzyl Propionate], the activation at 100 µM under setting [1] worked out at 0.52%. Under setting [2], the activation was determined as 63%.

Consider `C=C1CC/C=C(\C)CC[C@@H]2[C@@H]1CC2(C)C` [Beta-Caryophyllene], for which the activation at 100 µM under setting [1] is 0.21%. Also, the activation under setting [2] came out at 97.8%.

Regarding `C=C1CCC2CC1C2(C)C` (stereo not drawn) [Beta-Pinene], the activation at 100 µM under setting [1] is -6.02%. Under setting [2], the activation was 73.6%.

For the compound `CC1(C)C2CCC1(C)C(O)C2` (stereo not shown) [Borneol], the activation at 100 µM under setting [1] is -1.6%. Under setting [2], the activation was 51%.

As for `CC(=O)OC1CC2CCC1(C)C2(C)C` (stereo not shown) [Bornyl Acetate], the activation at 100 µM under setting [1] is -0.6%. Also, the activation under setting [2] turned out to be 51.2%.

On to `CC(C)CC(=O)OC1CC2CCC1(C)C2(C)C` (stereo not shown) [Bornyl Isovalerate], for which the activation at 100 µM under setting [1] was -1.36%. Further, the activation under setting [2] amounted to 72.5%.

Consider `CCCCOC(=O)CCC` [Butyl Butyrate], for which the activation at 100 µM under setting [1] was -0.66%. In addition, the activation under setting [2] is 62.3%.

Take `CCCCOC(=O)[C@H](C)O` [Butyl L-Lactate]: the activation at 100 µM under setting [1] was -0.66% and the activation at 100 µM under setting [2] came to 67.3%.

For the compound `CCCCOC(=O)CC` [Butyl Propionate], the activation at 100 µM under setting [1] was -0.32%. Also, the activation under setting [2] turned out to be 53.4%.

For the compound `CCCC=O` [Butyraldehyde], under setting [1], the activation at 100 µM came to 28.9%. Besides, under setting [2], the activation is 66.2%.

With `C=C1C2CCC(C2)C1(C)C` (stereo not shown) [Camphene], the activation at 100 µM under setting [1] is -1.43%. For the same compound, the activation under setting [2] turned out to be 96.5%.

As for `O=CC=Cc1ccccc1` [Cinnamaldehyde], the activation at 100 µM under setting [1] was 114%. The activation under setting [2] is -1.2%.

Regarding `OC/C=C/c1ccccc1` [Cinnamic Alcohol], the activation at 100 µM under setting [1] was -1.45%. For the same compound, the activation under setting [2] was 84%.

For `CC(=O)OCC=Cc1ccccc1` [Cinnamyl Acetate], the activation at 100 µM under setting [1] is -0.13%. Besides, under setting [2], the activation was 70.1%.

On to `CC(C)CC(=O)OCC=Cc1ccccc1` [Cinnamyl Isovalerate], for which the activation at 100 µM under setting [1] is -0.43%. In addition, the activation under setting [2] amounted to 49.7%.

Take `COC(C=C(C)CCC=C(C)C)OC` [Citral Dimethyl Acetal]: the activation at 100 µM under setting [1] was determined as 0.16%. The activation under setting [2] came out at 78%.

For `CC(C)=CCCC(C)CCOC=O` (stereo not shown) [Citronellyl Formate], the activation at 100 µM under setting [1] is -0.57%. Further, the activation under setting [2] was 89.5%.

Regarding `CC(C)=CCCC(C)CCOCC=O` (stereo not shown) [Citronellyl Oxyacetaldehyde], the activation at 100 µM under setting [1] was 148%. The activation under setting [2] was -1.16%.

Consider `CC(C)c1ccc(C=O)cc1` [Cuminaldehyde], for which the activation at 100 µM under setting [1] amounted to 25.6%. The activation under setting [2] was 72.9%.
